Source: patent publication US11597724B2, “Herbicidally active 3-phenylisoxazoline-5-carboxamides of tetrahydro and dihydrofuran carboxylic acids and esters” (Bayer Aktiengesellschaft, priority 2017, dated 2023)

How the values were obtained:
Format in all cases: in vivo
Stellaria media = test: Pre-emergence herbicidal activity against STEME; details: Stellaria media, 504 h, dosage 80 g/ha
Method in brief: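 Weed seeds sown in pots and covered with soil, then WP or EC formulations sprayed onto the soil surface as aqueous suspension/emulsion with 0.5% additive at 600 l/ha water. Kept in greenhouse; visual percent effect versus untreated controls scored after about 3 weeks (100% = plants dead).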

Veronica persica = test: Pre-emergence herbicidal activity against VERPE; details: Veronica persica, 504 h, dosage 80 g/ha
Description: 1. Pre-Emergence Herbicidal Action and Crop Plant Compatibility Seeds of monocotyledonous and dicotyledonous weed plants and crop plants are placed in plastic or wood fiber pots and covered with soil. The compounds of the invention, formulated in the form of wettable powders (WP) or as emulsion concentrates (EC), are then applied onto the surface of the covering soil as aqueous suspension or emulsion with addition of 0.5% additive at a water application rate of 600 l/ha (converted). After the treatment, the pots are placed in a greenhouse and kept under good growth conditions for the trial plants. After about 3 weeks, the effect of the preparations is scored visually in comparison with untreated controls as percentages. For example, 100% activity=the plants have died, 0% activity=like control plants. STEME: Stellaria media VERPE: Veronica persica

Echinochloa crus-galli = test: Post-emergence herbicidal activity against ECHCG; details: dosage 320 g/ha, rated about 3 weeks after treatment; for pest or weed control at 320 g/ha: Echinochloa crus-galli, 504 h
Method in brief: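 Greenhouse pot plants sprayed post-emergence at one-leaf stage (2-3 weeks after sowing) with WP or EC formulations, 0.5% additive, 600 l/ha water. Visual rating about 3 weeks later versus untreated controls: 100% = plants dead, 0% = like control.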

Lolium rigidum = test: Post-emergence herbicidal activity against LOLRI; details: dosage 320 g/ha, rated about 3 weeks after treatment; for pest or weed control at 320 g/ha: Lolium rigidum, 504 h
Method in brief: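 Greenhouse-grown plants sprayed post-emergence at the one-leaf stage, 2 to 3 weeks after sowing, with WP or EC formulations plus 0.5% additive at 600 l/ha water. Activity rated visually after about 3 weeks versus untreated controls (100% = plants dead, 0% = like control).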

Setaria viridis = test: Post-emergence herbicidal activity against SETVI; details: dosage 320 g/ha, rated about 3 weeks after treatment; for pest or weed control at 320 g/ha: Setaria viridis, 504 h
Method in brief: (§1)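 Greenhouse weeds in sandy loam were sprayed at the one-leaf stage, 2–3 weeks after sowing, with WP or EC formulations plus 0.5% additive at 600 l/ha water. About 3 weeks later, damage was rated visually against untreated controls, where 100% means plants dead and 0% means like control.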

Abutilon theophrasti = test: Post-emergence herbicidal activity against ABUTH; details: dosage 320 g/ha, rated about 3 weeks after treatment; for pest or weed control at 320 g/ha: Abutilon theophrasti, 504 h
Method in brief: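 Greenhouse-grown plants treated at one-leaf stage, 2 to 3 weeks after sowing, with WP or EC formulations sprayed as aqueous suspension/emulsion plus 0.5% additive at 600 l/ha. Activity rated visually about 3 weeks later versus untreated controls (100% = plants dead, 0% = like control).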

Polygonum convolvulus = test: Post-emergence herbicidal activity against POLCO; details: dosage 320 g/ha, rated about 3 weeks after treatment; for pest or weed control at 320 g/ha: Fallopia convolvulus, 504 h
Method in brief: as §1

[1] = Post-emergence treatment, summary over harmful plants; details: 504 h, application rate of 0.32 kg of active substance or less per hectare, read-out: herbicidal action, post-emergence treatment (very good herbicidal activity)
Method in brief: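 Greenhouse-grown weeds and crops were sprayed at the one-leaf stage (2–3 weeks post-sowing) with WP or EC formulations plus 0.5% additive at 600 l/ha water. About 3 weeks later, activity was visually rated against untreated controls (100% = dead plants, 0% = like control).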

Structure (SMILES) | pest or weed control at 80 g/ha (Stellaria media) [%] | pest or weed control at 80 g/ha (Veronica persica) [%] | pest or weed control at 320 g/ha (Echinochloa crus-galli) [%] | pest or weed control at 320 g/ha (Lolium rigidum) [%] | pest or weed control at 320 g/ha (Setaria viridis) [%] | pest or weed control at 320 g/ha (Abutilon theophrasti) [%] | pest or weed control at 320 g/ha (Polygonum convolvulus) [%] | pest or weed control at 320 g/ha [1] [%] | Post-emergence herbicidal activity against ECHCG in % (Echinochloa crus-galli) [%] | Post-emergence herbicidal activity against LOLRI in % (Lolium rigidum) [%] | Post-emergence herbicidal activity against SETVI in % (Setaria viridis) [%] | Post-emergence herbicidal activity against ABUTH in % (Abutilon theophrasti) [%] | Post-emergence herbicidal activity against POLCO in % (Polygonum convolvulus) [%]
C=C[C@]1(C(=O)N[C@H]2CO[C@@H](C(=O)OC)C2)CC(c2cc(F)cc(F)c2)=NO1 (mixture of isomers) [I-10, methyl cis-4-[[(5S)-3-(3,5-difluorophenyl)-5-vinyl-4H-isoxazole-5-carbonyl]amino]tetrahydrofuran-2-carboxylate] | 100 | 100 | 100 | 100 | 90 | 90 | 80 | 80 to 100 | – | – | – | – | –
C=C[C@]1(C(=O)N[C@H]2CO[C@@H](C(=O)OC)C2)CC(c2cc(F)cc(F)c2)=NO1 (single isomer, unassigned) [I-12] | 100 | 100 | – | – | – | – | – | 80 to 100 | 90 | 100 | 90 | 90 | 90
C=C[C@]1(C(=O)N[C@H]2CO[C@@H](C(=O)OC(C)(C)C)C2)CC(c2cc(F)cc(F)c2)=NO1 (mixture of isomers) [I-38, tert-butyl cis-4-[[(5S)-3-(3,5-difluorophenyl)-5-vinyl-4H-isoxazole-5-carbonyl]amino]tetrahydrofuran-2-carboxylate] | 100 | 100 | 90 | 90 | 100 | 80 | – | 80 to 100 | – | – | – | – | –
C=C[C@]1(C(=O)N[C@H]2CO[C@@H](C(=O)OC(C)C)C2)CC(c2cc(F)cc(F)c2)=NO1 (mixture of isomers) [I-36, isopropyl cis-4-[[(5S)-3-(3,5-difluorophenyl)-5-vinyl-4H-isoxazole-5-carbonyl]amino]tetrahydrofuran-2-carboxylate] | 100 | 100 | 90 | 90 | 80 | 90 | 80 | 80 to 100 | – | – | – | – | –
C=C[C@]1(C(=O)N[C@H]2CO[C@@H](C(=O)OCc3ccccc3)C2)CC(c2cc(F)cc(F)c2)=NO1 (mixture of isomers) [I-37, benzyl cis-4-[[(5S)-3-(3,5-difluorophenyl)-5-vinyl-4H-isoxazole-5-carbonyl]amino]tetrahydrofuran-2-carboxylate] | 100 | 100 | 90 | 90 | 80 | 80 | – | 80 to 100 | – | – | – | – | –
COC(=O)C1=C[C@@H](NC(=O)C2(C)CC(c3cccc(F)c3)=NO2)CO1 (stereo partly drawn) [I-46, methyl (3R)-3-[[3-(3-fluorophenyl)-5-methyl-4H-isoxazole-5-carbonyl]amino]-2,3-dihydrofuran-5-carboxylate] | 100 | 80 | 100 | 100 | 80 | 80 | 80 | 80 to 100 | – | – | – | – | –
C=C[C@]1(C(=O)N[C@H]2CO[C@@H](C(=O)OCC)C2)CC(c2cc(F)cc(F)c2)=NO1 (mixture of isomers) [I-35, ethyl cis-4-[[(5S)-3-(3,5-difluorophenyl)-5-vinyl-4H-isoxazole-5-carbonyl]amino]tetrahydrofuran-2-carboxylate] | 100 | 100 | 100 | 100 | 90 | 80 | – | 80 to 100 | – | – | – | – | –
